Test results from patent US20240180883A1, “TREATMENT OF MIGRAINE” (Allergan Pharmaceuticals International Limited, priority 2020, published 2024).

Key:
[1] = cited from earlier work; for liver enzyme levels: clinical trials
Study B: adverse events = details: Treatment B: rifampin 600 mg once daily for 5 days, fasted

Q: Which liver enzyme levels [1] does the source give for `O=C(CN1C(=O)C2(CCCC2)NC[C@H]1c1cc(F)cc(F)c1)Nc1ccc2c(c1)C[C@@]1(C2)C(=O)Nc2ncccc21` [MK-3207] here?
A: The liver enzyme levels was “elevated liver enzyme levels were observed”.

Q: Which results are given for `NCCCC[C@H](NC(=O)[C@@H](Cc1cc(Br)c(O)c(Br)c1)NC(=O)N1CCC(N2Cc3ccccc3NC2=O)CC1)C(=O)N1CCN(c2ccncc2)CC1` [olcegepant]?
A: efficacy in the acute treatment of migraine ([1]; IV formulation): efficacious in the acute treatment of migraine; oral bioavailability ([1]; human, in vivo, po): not orally bioavailable

Q: Which “AEs leading to discontinuation” value (Study B: adverse events) does the source give for `CO[C@H]1/C=C/O[C@@]2(C)Oc3c(C)c(O)c4c(O)c(c(/C=N/N5CCN(C)CC5)c(O)c4c3C2=O)NC(=O)/C(C)=C\C=C\[C@H](C)[C@H](O)[C@@H](C)[C@@H](O)[C@@H](C)[C@H](OC(C)=O)[C@@H]1C` [rifampin, reference compound] here?
A: Its value is 0 n (%).

Q: What about the “Any AE” value (Study B: adverse events) of the same compound?
A: The value was 1 (3.3) n (%).

Q: What about the Deaths (Study B: adverse events) of the same compound?
A: The Deaths was 0 n (%).

Q: What about the “Dry Mouth” value (Study B: adverse events) of the same compound?
A: Its value is 0 n (%).

Q: What about the Flatulence (Study B: adverse events) of the same compound?
A: The Flatulence was 0 n (%).

Q: What about the “Gastrointestinal Disorders” value (Study B: adverse events) of the same compound?
A: Its value is 0 n (%).

Q: What about the Headache (Study B: adverse events) of the same compound?
A: The Headache was 1 (3.3) n (%).

Q: What about the Nausea (Study B: adverse events) of the same compound?
A: The Nausea was 0 n (%).

Q: And the “Nervous System Disorders” value (Study B: adverse events)?
A: Its value is 1 (3.3) n (%).

Q: What about the SAEs (Study B: adverse events) of the same compound?
A: Its SAEs is 0 n (%).

Q: What about the TEAEs (Study B: adverse events) of the same compound?
A: Its TEAEs is 1 (3.3) n (%).

Q: What about the “Treatment related TEAEs” value (Study B: adverse events) of the same compound?
A: Its value is 1 (3.3) n (%).

Q: With `O=C(N[C@@H]1CC[C@@H](c2cccc(F)c2F)CN(CC(F)(F)F)C1=O)N1CCC(n2c(=O)[nH]c3ncccc32)CC1` [telcagepant] as the compound, how does the liver enzyme levels [1] read?
A: Its liver enzyme levels is “elevated liver enzyme levels were observed”.
